Laboratory results taken from US20080176862A1, “New Compounds 617” (ASTRAZENECA AB, priority 2006, published 2008).
Where a name gives a salt, the structure may show the parent alone.

target: T1, human β-Secretase (soluble part, AA1-AA460; sBACE-Fc) (Homo sapiens, UniProt P56817); experiment: TR-FRET assay; format: biochemical; settings: substrate (Europium)CEVNLDAEFK(Qsy7) 100 nM, pH 4.5, 15 min at RT; read-out: IC50 (nM) in TR-FRET assay
T1 construct: The soluble part of the human β-Secretase (AA1-AA460) was cloned into the ASP2-Fc10-1-IRES-GFP-neoK mammalian expression vector; made in house
T1 sequence (P56817 22-460): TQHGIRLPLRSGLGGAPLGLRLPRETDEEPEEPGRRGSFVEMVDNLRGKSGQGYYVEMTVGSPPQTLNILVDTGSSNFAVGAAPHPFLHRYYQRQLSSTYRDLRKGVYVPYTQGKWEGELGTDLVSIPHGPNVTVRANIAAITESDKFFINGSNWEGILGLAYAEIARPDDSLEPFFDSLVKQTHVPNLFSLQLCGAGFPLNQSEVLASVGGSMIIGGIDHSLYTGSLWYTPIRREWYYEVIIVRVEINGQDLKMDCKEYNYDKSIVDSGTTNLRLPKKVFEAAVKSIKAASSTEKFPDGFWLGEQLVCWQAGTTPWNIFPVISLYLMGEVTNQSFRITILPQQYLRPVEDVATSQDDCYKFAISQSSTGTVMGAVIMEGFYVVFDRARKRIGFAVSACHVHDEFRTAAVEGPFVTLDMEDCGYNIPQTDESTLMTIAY
Description: The enzyme used in the IGEN Cleavage-, Fluorescent-, TR-FRET- and BiaCore assays is described as follows:
The soluble part of the human β-Secretase (AA1-AA460) was cloned into the ASP2-Fc10-1-IRES-GFP-neoK mammalian expression vector. The gene was fused to the Fc domain of IgG1 (affinity tag) and stably cloned into HEK 293 cells. Purified sBACE-Fc is stored in Tris buffer, pH 9.2 and has a purity of 95%.
Enzyme was diluted to 6 μg/mL and the substrate (Europium)[…](Qsy7) to 200 nM in reaction buffer (NaAcetate, chaps, triton x-100, EDTA pH 4.5). Compounds were diluted to the desired concentration in dimethyl sulfoxide (final dimethyl sulfoxide concentration in assay is 5%). […] Enzyme (9 μL) and 1 μL of compound in dimethyl sulfoxide was added to the plate, mixed and pre-incubated for 10 min. Substrate (10 μL) was added and the reaction proceeded in the dark for 15 min at RT. The reaction was stopped with the addition of 7 μL NaAcetate, pH 9. The fluorescence of the product was measured on a Victor II plate reader with an excitation wavelength of 340 nm and an emission wavelength of 615 nm. […] The dimethyl sulfoxide control defined the 100% activity level and 0% activity was defined by exclusion of the enzyme (using reaction buffer instead).

Compound | IC50
COc1cccc(-c2ccnc(C3(c4ccc(OS(C)(=O)=O)cc4)N=C(N)N(C)C3=O)c2)c1 (centres unmarked) [Example 296, 4-{2-Amino-4-[4-(3-methoxyphenyl)pyridin-2-yl]-1-methyl-5-oxo-4,5-dihydro-1H-imidazol-4-yl}phenyl methanesulfonate 0.25 acetate] | 1350 nM
CN1C(=O)C(c2ccc(OS(=O)(=O)C(F)(F)F)cc2)(c2ccc(F)c(-c3cccnc3F)c2)N=C1N (centres unmarked) [Example 142, 4-{2-Amino-4-[4-fluoro-3-(2-fluoropyridin-3-yl)phenyl]-1-methyl-5-oxo-4,5-dihydro-1H-imidazol-4-yl}phenyl trifluoromethanesulfonate 0.75 acetate] | 140 nM
CN1C(=O)C(c2ccc(OS(=O)(=O)C(F)(F)F)cc2)(c2ccc(F)c(-c3cncc(C#N)c3)c2)N=C1N (centres unmarked) [Example 144, 4-{2-Amino-4-[3-(5-cyanopyridin-3-yl)-4-fluorophenyl]-1-methyl-5-oxo-4,5-dihydro-1H-imidazol-4-yl}phenyl trifluoromethanesulfonate 0.5 acetate] | 321 nM
CN1C(=O)C(c2cccc(OS(=O)(=O)c3ccccn3)c2)(c2ccc(F)c(-c3cncnc3)c2)N=C1N (centres unmarked) [Example 237, 3-[2-Amino-4-(4-fluoro-3-pyrimidin-5-ylphenyl)-1-methyl-5-oxo-4,5-dihydro-1H-imidazol-4-yl]phenyl pyridine-2-sulfonate] | 124 nM
CN1C(=O)C(c2cccc(OS(=O)(=O)c3ccccn3)c2)(c2ccc(F)c(Br)c2)N=C1N (centres unmarked) [Example 226, 3-[2-Amino-4-(3-bromo-4-fluorophenyl)-1-methyl-5-oxo-4,5-dihydro-1H-imidazol-4-yl]phenyl pyridine-2-sulfonate] | 859 nM
CN1C(=O)C(c2cccc(-c3cc(Cl)cc(OS(C)(=O)=O)c3)c2)(c2ccnc(Cl)c2)N=C1N (centres unmarked) [Example 311, 3′-(2-Amino-4-(2-chloropyridin-4-yl)-1-methyl-5-oxo-4,5-dihydro-1H-imidazol-4-yl)-5-chlorobiphenyl-3-yl methanesulfonate hydrochloride] | 24 nM
CN1C(=O)C(c2ccc(OS(C)(=O)=O)cc2)(c2ccc(F)c(CCC3CC3)c2)N=C1N (centres unmarked) [Example 79, 4-{2-Amino-4-[3-(2-cyclopropylethyl)-4-fluorophenyl]-1-methyl-5-oxo-4,5-dihydro-1H-imidazol-4-yl}phenyl methanesulfonate] | 552 nM
CCN1C(=O)C(c2ccc(OS(C)(=O)=O)cc2)(c2ccc(F)c(-c3cccc(Cl)c3)c2)N=C1N (centres unmarked) [Example 164, 4-[2-Amino-4-(3′-chloro-6-fluorobiphenyl-3-yl)-1-ethyl-5-oxo-4,5-dihydro-1H-imidazol-4-yl]phenyl methanesulfonate] | 912 nM
CN1C(=O)C(c2ccc(OS(C)(=O)=O)cc2)(c2cncc(-c3cccnc3F)c2)N=C1N (centres unmarked) [Example 22, 4-[2-amino-4-(2′-fluoro-3,3′-bipyridin-5-yl)-1-methyl-5-oxo-4,5-dihydro-1H-imidazol-4-yl]phenyl methanesulfonate 0.5 acetate] | 1650 nM
Cc1nn(C)c(Cl)c1S(=O)(=O)Oc1ccc(C2(c3ccc(F)c(-c4cccnc4)c3)N=C(N)N(C)C2=O)cc1 (centres unmarked) [Example 285, 4-[2-Amino-4-(4-fluoro-3-pyridin-3-ylphenyl)-1-methyl-5-oxo-4,5-dihydro-1H-imidazol-4-yl]phenyl 5-chloro-1,3-dimethyl-1H-pyrazole-4-sulfonate 0.25 acetate] | 122 nM
COc1ccc(C2(c3cccc(-c4cc(OC)cc(OS(C)(=O)=O)c4)c3)N=C(N)N(C)C2=O)cc1 (centres unmarked) [Example 57, 3′-[2-Amino-4-(4-methoxyphenyl)-1-methyl-5-oxo-4,5-dihydro-1H-imidazol-4-yl]-5-methoxybiphenyl-3-yl methanesulfonate] | 34 nM
CN1C(=O)C(c2ccc(OS(=O)(=O)C(F)(F)F)cc2)(c2ccc(F)c(-c3cncc(Cl)c3)c2)N=C1N (centres unmarked) [Example 140, 4-{2-Amino-4-[3-(5-chloropyridin-3-yl)-4-fluorophenyl]-1-methyl-5-oxo-4,5-dihydro-1H-imidazol-4-yl}phenyl trifluoromethanesulfonate 0.75 acetate] | 116 nM
CN1C(=O)C(c2ccc(OS(=O)(=O)C(F)(F)F)cc2)(c2ccc(F)c(-c3cnccn3)c2)N=C1N (centres unmarked) [Example 143, 4-[2-Amino-4-(4-fluoro-3-pyrazin-2-ylphenyl)-1-methyl-5-oxo-4,5-dihydro-1H-imidazol-4-yl]phenyl trifluoromethanesulfonate 0.5 acetate] | 214 nM
CCC(C)(C)c1ccc(S(=O)(=O)Oc2ccc(C3(c4ccc(F)c(-c5cncnc5)c4)N=C(N)N(C)C3=O)cc2)cc1 (centres unmarked) [Example 276, 4-[2-Amino-4-(4-fluoro-3-pyrimidin-5-ylphenyl)-1-methyl-5-oxo-4,5-dihydro-1H-imidazol-4-yl]phenyl 4-(1,1-dimethylpropyl)benzenesulfonate] | 183 nM
CN1C(=O)C(c2cccc(OS(=O)(=O)c3ccc4c(c3)oc(=O)n4C)c2)(c2ccc(F)c(-c3cncnc3)c2)N=C1N (centres unmarked) [Example 240, 3-[2-Amino-4-(4-fluoro-3-pyrimidin-5-ylphenyl)-1-methyl-5-oxo-4,5-dihydro-1H-imidazol-4-yl]phenyl 3-methyl-2-oxo-2,3-dihydro-1,3-benzoxazole-6-sulfonate] | 20 nM
Cc1nn(C)c(Cl)c1S(=O)(=O)Oc1cccc(C2(c3ccc(F)c(-c4cncnc4)c3)N=C(N)N(C)C2=O)c1 (centres unmarked) [Example 241, 3-[2-Amino-4-(4-fluoro-3-pyrimidin-5-ylphenyl)-1-methyl-5-oxo-4,5-dihydro-1H-imidazol-4-yl]phenyl 5-chloro-1,3-dimethyl-1H-pyrazole-4-sulfonate] | 20 nM
CCCS(=O)(=O)Oc1cccc(C2(c3ccc(F)c(-c4cccnc4)c3)N=C(N)N(C)C2=O)c1 (centres unmarked) [Example 97, 3-[2-Amino-4-(4-fluoro-3-pyridin-3-ylphenyl)-1-methyl-5-oxo-4,5-dihydro-1H-imidazol-4-yl]phenylpropane-1-sulfonate] | 236 nM
CN1C(=O)C(c2cccc(OS(=O)(=O)c3ccc(-n4cccn4)cc3)c2)(c2ccc(F)c(Br)c2)N=C1N (centres unmarked) [Example 227, 3-[2-Amino-4-(3-bromo-4-fluorophenyl)-1-methyl-5-oxo-4,5-dihydro-1H-imidazol-4-yl]phenyl 4-(1H-pyrazol-1-yl)benzenesulfonate] | 1460 nM
CN1C(=O)C(c2cccc(OS(=O)(=O)N(C)C)c2)(c2ccc(F)c(-c3cccnc3F)c2)N=C1N (centres unmarked) [Example 110, 3-{2-Amino-4-[4-fluoro-3-(2-fluoropyridin-3-yl)phenyl]-1-methyl-5-oxo-4,5-dihydro-1H-imidazol-4-yl}phenyldimethylsulfamate] | 114 nM
CN1C(=O)C(c2ccc(OS(C)(=O)=O)cc2)(c2ccnc(-c3cccnc3F)c2)N=C1N (centres unmarked) [Example 29, 4-[2-Amino-4-(2′-fluoro-2,3′-bipyridin-4-yl)-1-methyl-5-oxo-4,5-dihydro-1H-imidazol-4-yl]phenyl methanesulfonate 0.25 acetate] | 387 nM
CN1C(=O)C(c2ccc(F)c(-c3cc(Cl)cc(OS(C)(=O)=O)c3)c2)(C2CCOCC2)N=C1N (centres unmarked) [Example 193, 5′-[2-Amino-1-methyl-5-oxo-4-(tetrahydro-2H-pyran-4-yl)-4,5-dihydro-1H-imidazol-4-yl]-5-chloro-2′-fluorobiphenyl-3-yl methanesulfonate hydrochloride] | 1180 nM
CN1C(=O)C(c2ccc(OC(F)F)cc2)(c2ccc(F)c(-c3cc(C#N)cc(OS(C)(=O)=O)c3)c2)N=C1N (centres unmarked) [Example 70, 5′-{2-Amino-4-[4-(difluoromethoxy)phenyl]-1-methyl-5-oxo-4,5-dihydro-1H-imidazol-4-yl}-5-cyano-2′-fluorobiphenyl-3-yl methanesulfonate hydrochloride] | 2420 nM
CCCS(=O)(=O)Oc1cccc(C2(c3ccc(F)c(-c4cccc(Cl)c4)c3)N=C(N)N(C)C2=O)c1 (centres unmarked) [Example 98, 3-[2-Amino-4-(3′-chloro-6-fluorobiphenyl-3-yl)-1-methyl-5-oxo-4,5-dihydro-1H-imidazol-4-yl]phenyl propane-1-sulfonate] | 239 nM
COc1cc(OS(C)(=O)=O)cc(-c2cccc(C3(c4ccc(OC(F)F)cc4)N=C(N)N(C)C3=O)c2)c1 (centres unmarked) [Example 63, 3′-{2-Amino-4-[4-(difluoromethoxy)phenyl]-1-methyl-5-oxo-4,5-dihydro-1H-imidazol-4-yl}-5-methoxybiphenyl-3-yl methanesulfonate 0.25acetate] | 18 nM
CCCS(=O)(=O)Oc1cccc(C2(c3ccc(F)c(-c4cccc(OC)c4)c3)N=C(N)N(C)C2=O)c1 (centres unmarked) [Example 101, 3-[2-Amino-4-(6-fluoro-3′-methoxybiphenyl-3-yl)-1-methyl-5-oxo-4,5-dihydro-1H-imidazol-4-yl]phenyl propane-1-sulfonate] | 180 nM
CCC(C)(C)c1ccc(S(=O)(=O)Oc2ccc(C3(c4ccc(F)c(-c5cccnc5)c4)N=C(N)N(C)C3=O)cc2)cc1 (centres unmarked) [Example 281, 4-[2-Amino-4-(4-fluoro-3-pyridin-3-ylphenyl)-1-methyl-5-oxo-4,5-dihydro-1H-imidazol-4-yl]phenyl 4-(1,1-dimethylpropyl)benzenesulfonate] | 79 nM
